# Data reported in patent publication US11666589B2, “Pivarubicin and benzarubicin compositions” (Paradox Pharmaceuticals, Inc., priority 2020, dated 2023).
# Columns and labels:
# 32D.3 cells [1] = assay: Cell viability by trypan blue with or without rottlerin
# Method: Rottlerin treatment of cells, cell viability analysis by MTT [28] and immunoblot identification of protein expression were performed and described previously.
# FIGS. 4A-4D are charts and images from studies of pivarubicin cytotoxicity mediated through PKC-delta (PKCd) activation. For FIG. 4A, 32D.3 cells, suspended in RPMI-1640 medium/10% FCS/IL-3 at a density of 5×10^5 cells/ml, were treated with either DMSO (C) or 5 μM pivarubicin (PIV) for 4 h prior to harvesting, cell fractionation, and immunoblot analysis of PKCd as described previously. For FIG. 4B, 32D.3 cells were pretreated with 10 μM rottlerin for 2 h prior to exposure to 5 μM drug for 1 h at 37° C. Cells were pelleted and washed twice in large volumes of warm PBS, then resuspended in fresh, drug-free medium containing 10 μM rottlerin at 5×10^5 cells/ml and incubated at 37° C. for up to 72 h. At indicated times, aliquots of cells were withdrawn and stained with trypan blue. Viable cells were scored based on the exclusion of stain and gross morphological appearance. For the results shown in FIGS. 4C and 4D, 32D.3 cells were transfected with PKCd siRNA or scrambled siRNA as described in the Materials and Methods section under “Chemicals and Biologicals”. The cells were then assessed for pivarubicin cytotoxicity as for FIG. 4A. Each datum point represents the mean and standard error of at least three independent determinations, each consisting of 300-500 cells per count, when possible.
# CEM/VLB-10 = assay: Drug resistance of P-glycoprotein overexpressing CEM/VLB-10 cells; format: cell-based, human; details: CEM/VLB-10 versus CCRF-CEM
# Method: Pivarubicin used for TNBC studies was synthesized by Dr. John Rimoldi (Univ. of Mississippi) using the previously described protocol. Doxorubicin HCl, rottlerin and all antibodies were purchased from Sigma-Aldrich (St. Louis, Mo.). For in vitro experiments, doxorubicin and pivarubicin were dissolved in DMSO. The final maximum DMSO concentration used for in vitro drug treatments (1% for 72 hours) was not cytotoxic. IL-3-dependent 32D.3 murine myeloid cells, CCRF-CEM human lymphoblastic leukemia cells and multidrug-resistant variants (generous gift of Dr. William T. Beck, St. Jude Children's Research Hospital, Memphis, Tenn.), 293 embryonic human kidney cells and HL-60 human acute myeloid leukemia cells transfected with Bcr-Abl, Bcl-XL or empty expression vectors (generous gift of Dr. Kapil Bhalla, Univ. of Miami) were maintained as previously described. K562 human chronic myelogenous leukemia and LNCaP human prostate cancer cells were purchased from ATCC (Manassas, Va.) and maintained as described by the vendor. LNCaP/Bcl-2 cells were the generous gift of Dr. Ralph Buttyan (Columbia Univ.). Luminescent MDA-MB-231-LM2 (LM-2; metastatic lung subpopulation isolated from human TNBC MDA-MB-231 cells transduced with eIF1a-Luc2-puro lentivirus) were generously provided by Dr. Yibin Kang, Princeton Univ.) and maintained in culture as previously described. […]
# [2] = Maximum tolerated dose in non-tumor-bearing mice; format: in vivo, female NSG mice
# Method: The MTD for pivarubicin was 26.6 mg/kg, producing a reversible mean 20% weight loss after two doses, with a third dose producing an irreversible mean weight loss >20%.
# [3] = tested on: 32D.3, J774.2 and 293 cells; assay: Biotransformation to AD 288 after uptake into cells; format: in vitro ADME; details: initial (1 hour), 1 μM
# Excerpt: (§1) Intracellular drug was extracted and analyzed by fluorescence HPLC as described previously.
# 32D.3 cells [4] = assay: Analysis of apoptosis (cytochrome c release immunoblot, TUNEL); format: cell-based, murine; details: 5 μM for 1 hour
# Method: Detection of DNA fragmentation in apoptotic cells by the TUNEL assay and immunoblot analyses of cytochrome c release were performed as described previously.
# Once distributed into microsomal membranes, pivarubicin triggered rapid, mitochondrial-dependent apoptosis that was independent of cell cycle arrest. Marked release of cytochrome c into the cytosol as an indicator of mitochondrial depolarization and dysfunction is detected within 5 hours of drug treatment, while DNA fragmentation, as detected by TUNEL staining, is abundant by 6 hours.
# In a study of Cytochrome c (Cyt C) release by pivarubicin (PIV) and control (C), 32D.3 cells were exposed to 5 μM pivarubicin for 1 hour, then incubated in drug-free medium for an additional 4 hours. Cells were then fractionated to isolate the cytosolic fraction, subjected to immunoblotting and treated with anti-cytochrome c monoclonal antibody (1:250) for 2 hours, followed by a 1-hour treatment with 1:1000 dilution of horseradish peroxidase-conjugated goat anti-mouse second antibody as described previously. Proteins were detected by chemiluminescence (FIG. 3A). […] Individual fields of cells were detected for both DNA 3′-end labeling (green: grayscale image in FIG. 3D) or total cellular DNA staining by propidium iodide (red: grayscale images in FIGS. 3C and 3E). […]
# [5] = tested on: 32D.3 murine myeloid cells; assay: Drug biotransformation analysis (HPLC of intracellular drug) in 32D.3 cells; format: in vitro ADME
# Excerpt: as §1
# [6] = tested on: HL-60 human promyelocytic leukemia cells transfected with Bcl-XL; assay: Cytotoxicity in Bcl-XL transfected HL-60 cells; format: cell-based; details: 5 μM for 1 h, 72 h drug-free
# Method: (§2) For the results shown in FIG. 5A, LNCaP cells transfected with Bcl-2 expression vector were assessed for doxorubicin or pivarubicin cytotoxicity, compared to cells transfected with empty vectors. Cells were exposed to 5 μM drug for 1 h, washed, and further incubated for 72 h in drug-free medium. Viability was determined by the MTT assay. For the results shown in FIG. 5B, pivarubicin cytotoxicity in HL-60 cells transfected with Bcr-Abl or Bcl-XL expression vectors were assessed for doxorubicin or pivarubicin cytotoxicity and compared as described for FIG. 5A.
# [7] = tested on: 293 embryonic human kidney cells; assay: Drug biotransformation analysis (HPLC of intracellular drug) in 293 cells; format: in vitro ADME
# Excerpt: as §1
# [8] = tested on: HL-60 cells transfected with Bcr-Abl; assay: Cytotoxicity in Bcr-Abl transfected HL-60 cells; format: cell-based, human
# Method: as §2
# [9] = tested on: human LNCaP prostate cancer cells; assay: Pivarubicin cytotoxicity after PKCd siRNA transfection; format: cell-based; details: PKCd-siRNA-transfected cells
# [10] = tested on: LNCaP human prostate cancer cells transfected with Bcl-2; assay: MTT cytotoxicity in Bcl-2 transfected LNCaP cells; format: cell-based; details: 5 μM for 1 h, 72 h drug-free
# Method: as §2
# [11] = without rottlerin, doxorubicin at IC50 concentration
Compound,effect of rottlerin co-treatment on cytotoxicity (32D.3 cells [1]; 10 μM rottlerin),time to 50% cell kill (32D.3 cells [1]; [11]),resistance (CEM/VLB-10),reversible mean weight loss ([2]; 1.4 mg/kg after 3 prior escalating doses),"irreversible mean weight loss ([2]; 1.8 mg/kg, independent dosing experiment)",MTD ([2]; i.p. once every 2 weeks),time to 50% cell kill (32D.3 cells [1]; co-treatment with 10 μM rottlerin),drug initially biotransformed [3],time to marked release of cytochrome c into the cytosol (32D.3 cells [4]; then drug-free medium),DNA fragmentation detected by TUNEL staining (32D.3 cells [4]; by 6 hours),"% Parent Compound ([5]; 32D.3, 1 hr, 1 μM drug, 37° C.)","% Parent Compound ([5]; 32D.3, 8 hr (1 hr drug + 7 hours drug-free medium))",effect of Bcl-XL overexpression on rate of drug-induced apoptosis [6],"% Parent Compound ([7]; 293, 1 hr, 1 μM drug, 37° C.)","% Parent Compound ([7]; 293, 8 hr (1 hr drug + 7 hours drug-free medium))",effect of Bcr-Abl on cytotoxicity [8],"reversible mean weight loss ([2]; 26.6 mg/kg, after two doses)","irreversible mean weight loss ([2]; 26.6 mg/kg, third dose)",increase in concentration required to achieve 50% cell kill [9],effect of Bcl-2 overexpression on rate of drug-induced apoptosis [10]
"COc1cccc2c1C(=O)c1c(O)c3c(c(O)c1C2=O)C[C@@](O)(C(=O)CO)C[C@@H]3O[C@H]1C[C@H](N)[C@H](O)[C@H](C)O1 [Doxorubicin, reference compound]",does not alter,24 h,12 fold,22%,> 25%,1.4 mg/kg,–,–,–,–,–,–,–,–,–,–,–,–,–,–
"COc1cccc2c1C(=O)c1c(O)c3c(c(O)c1C2=O)C[C@@](O)(C(=O)COC(=O)C(C)(C)C)C[C@@H]3O[C@H]1C[C@H](NCc2ccccc2)[C@H](O)[C@H](C)O1 [Pivarubicin, N-Benzyladriamycin-14-pivalate]",–,≤ 6 h,no resistance,–,–,–,24 h,less than 10%,≤ 5 h,abundant,100%,96%,do not impede,98%,94%,no inhibitory effect,20%,> 20%,2.5 fold,do not impede
